≈ marks a conversion by molar mass, not a printed value.
Legend:
[1] = system: M. tuberculosis DRM167-16x3 (KasA V123A); assay type: cell-based, Mycobacterium tuberculosis
[2] = system: M. tuberculosis DRM167-8x6 (KasA M213L); assay type: cell-based, Mycobacterium tuberculosis
[3] = system: M. tuberculosis DRM167-8x3 (KasA I145T); assay type: cell-based, Mycobacterium tuberculosis
[4] = system: M. tuberculosis DRM167-16x6 (KasA I122S); assay type: cell-based, Mycobacterium tuberculosis
[5] = system: M. tuberculosis DRM167-8x2 (KasA A119T); assay type: cell-based, Mycobacterium tuberculosis
[6] = system: M. tuberculosis DRM167-32x11 (KasA G240S); assay type: cell-based, Mycobacterium tuberculosis
[7] = system: M. tuberculosis DRM167-32x2 (KasA P206T); assay type: cell-based, Mycobacterium tuberculosis
M. tuberculosis mc^24914 = assay: microbe, parasite or virus in culture; assay type: cell-based; conditions: Mycobacterium tuberculosis
M. tuberculosis TDR31 = assay: microbe, parasite or virus in culture; assay type: cell-based; conditions: Mycobacterium tuberculosis
M. tuberculosis TDR116 = assay: microbe, parasite or virus in culture; assay type: cell-based; conditions: Mycobacterium tuberculosis
[8] = system: mycolic acid biosynthesis in M. tuberculosis DRM167-32x2 (KasA P206T); assay type: cell-based, Mycobacterium tuberculosis
M. tuberculosis DRM5 = assay: microbe, parasite or virus in culture; assay type: cell-based; conditions: Mycobacterium tuberculosis
M. tuberculosis DRM8.3 = assay: microbe, parasite or virus in culture; assay type: cell-based; conditions: Mycobacterium tuberculosis
M. tuberculosis TDR36 = assay: microbe, parasite or virus in culture; assay type: cell-based; conditions: Mycobacterium tuberculosis

COc1nc2ccc(Br)cc2cc1[C@@H](c1ccccc1)[C@@](O)(CCN(C)C)c1cccc2ccccc12 [BDQ, bedaquiline]
MIC [1]: 0.5 µM (≈ 0.278 µg/mL) | MIC [2]: 0.5 µM (≈ 0.278 µg/mL) | MIC [3]: 1 µM (≈ 0.556 µg/mL) | MIC [4]: 0.5 µM (≈ 0.278 µg/mL) | MIC [5]: 0.5 µM (≈ 0.278 µg/mL) | MIC [6]: 0.25 µM (≈ 0.139 µg/mL) | MIC [7]: 0.12 µM (≈ 0.0667 µg/mL)

CCCCS(=O)(=O)Nc1ccc2cnn(C)c2c1 [DG167, N-(1-Methyl-1H-indazol-6-yl)butane-1-sulfonamide]
MIC (M. tuberculosis mc^24914): 0.78 µM (≈ 0.209 µg/mL) | MIC (M. tuberculosis TDR31): 0.2 µM (≈ 0.0535 µg/mL) | MIC (M. tuberculosis TDR116): 0.2 µM (≈ 0.0535 µg/mL) | MIC [1]: 1.56 µM (≈ 0.417 µg/mL) | MIC [2]: 3.12 µM (≈ 0.834 µg/mL) | MIC [3]: 6.25 µM (≈ 1.67 µg/mL) | MIC [4]: 50 µM (≈ 13.4 µg/mL) | MIC [5]: 50 µM (≈ 13.4 µg/mL) | MIC [6]: 100 µM (≈ 26.7 µg/mL) | MIC [7]: >100 µM | inhibition of mycolic acid biosynthesis [8]: resistant to DG167-mediated inhibition of mycolic acid biosynthesis | frequency of resistant mutants (M. tuberculosis): 1 × 10^−7

CC[C@@H](CO)NCCN[C@@H](CC)CO [EMB, ethambutol]
MIC [1]: 1.56 µM (≈ 0.319 µg/mL) | MIC [2]: 1.56 µM (≈ 0.319 µg/mL) | MIC [3]: 1.56 µM (≈ 0.319 µg/mL) | MIC [4]: 1.56 µM (≈ 0.319 µg/mL) | MIC [5]: 1.56 µM (≈ 0.319 µg/mL) | MIC [6]: 1.56 µM (≈ 0.319 µg/mL) | MIC [7]: 1.56 µM (≈ 0.319 µg/mL)

CCc1cc(C(N)=S)ccn1 [ETH, ethionamide]
MIC [1]: 25 µM (≈ 4.16 µg/mL) | MIC [2]: 25 µM (≈ 4.16 µg/mL) | MIC [3]: 25 µM (≈ 4.16 µg/mL) | MIC [4]: 12.5 µM (≈ 2.08 µg/mL) | MIC [5]: 12.5 µM (≈ 2.08 µg/mL) | MIC [6]: 12.5 µM (≈ 2.08 µg/mL) | MIC [7]: 12.5 µM (≈ 2.08 µg/mL)

NNC(=O)c1ccncc1 [INH, isoniazid]
MIC (M. tuberculosis DRM5): 0.4 µM (≈ 0.0549 µg/mL) | MIC (M. tuberculosis DRM8.3): 0.4 µM (≈ 0.0549 µg/mL) | MIC (M. tuberculosis mc^24914): 1.6 µM (≈ 0.219 µg/mL) | MIC (M. tuberculosis TDR31): > 12 µM | MIC (M. tuberculosis TDR36): > 12 µM | MIC (M. tuberculosis TDR116): > 12 µM | MIC [1]: 0.38 µM (≈ 0.0521 µg/mL) | MIC [2]: 0.38 µM (≈ 0.0521 µg/mL) | MIC [3]: 0.38 µM (≈ 0.0521 µg/mL) | MIC [4]: 0.19 µM (≈ 0.0261 µg/mL) | MIC [5]: 0.38 µM (≈ 0.0521 µg/mL) | MIC [6]: 0.19 µM (≈ 0.0261 µg/mL) | MIC [7]: 0.19 µM (≈ 0.0261 µg/mL)

COc1c(N2C[C@@H]3CCCN[C@@H]3C2)c(F)cc2c(=O)c(C(=O)O)cn(C3CC3)c12 [Moxi, moxifloxacin]
MIC [1]: 0.03 µM (≈ 0.012 µg/mL) | MIC [2]: 0.03 µM (≈ 0.012 µg/mL) | MIC [3]: 0.03 µM (≈ 0.012 µg/mL) | MIC [4]: 0.03 µM (≈ 0.012 µg/mL) | MIC [5]: 0.03 µM (≈ 0.012 µg/mL) | MIC [6]: 0.03 µM (≈ 0.012 µg/mL) | MIC [7]: 0.03 µM (≈ 0.012 µg/mL)

O=[N+]([O-])c1cn2c(n1)OC[C@@H](OCc1ccc(OC(F)(F)F)cc1)C2 [PA824]
MIC [1]: 0.1 µM (≈ 0.0359 µg/mL) | MIC [2]: 0.1 µM (≈ 0.0359 µg/mL) | MIC [3]: 0.1 µM (≈ 0.0359 µg/mL) | MIC [4]: 0.1 µM (≈ 0.0359 µg/mL) | MIC [5]: 0.1 µM (≈ 0.0359 µg/mL) | MIC [6]: 0.1 µM (≈ 0.0359 µg/mL) | MIC [7]: 0.1 µM (≈ 0.0359 µg/mL)

CO[C@H]1/C=C/O[C@@]2(C)Oc3c(C)c(O)c4c(O)c(c(/C=N/N5CCN(C)CC5)c(O)c4c3C2=O)NC(=O)/C(C)=C\C=C\[C@H](C)[C@H](O)[C@@H](C)[C@@H](O)[C@@H](C)[C@H](OC(C)=O)[C@@H]1C [RIF, rifampin]
MIC [1]: 0.001 µM (≈ 0.000823 µg/mL) | MIC [2]: 0.001 µM (≈ 0.000823 µg/mL) | MIC [3]: 0.002 µM (≈ 0.00165 µg/mL) | MIC [4]: 0.001 µM (≈ 0.000823 µg/mL) | MIC [5]: 0.001 µM (≈ 0.000823 µg/mL) | MIC [6]: 0.001 µM (≈ 0.000823 µg/mL) | MIC [7]: 0.001 µM (≈ 0.000823 µg/mL)

CC(C)=CCC/C(C)=C/CNCCNC1C2CC3CC(C2)CC1C3 (centres unmarked) [SQ109]
MIC [1]: 0.8 µM (≈ 0.264 µg/mL) | MIC [2]: 0.4 µM (≈ 0.132 µg/mL) | MIC [3]: 0.8 µM (≈ 0.264 µg/mL) | MIC [4]: 0.4 µM (≈ 0.132 µg/mL) | MIC [5]: 0.8 µM (≈ 0.264 µg/mL) | MIC [6]: 0.4 µM (≈ 0.132 µg/mL) | MIC [7]: 0.4 µM (≈ 0.132 µg/mL)
